Data on eight compounds can be found in patent US10681908B2, “Molecules having pesticidal utility, and intermediates, compositions, and processes, related thereto” (Dow AgroSciences LLC, priority 2016, dated 2020).

By mortality is commonly meant the percentage killed.

Holding throughout (assay type): in vivo
For series [1], the system named is Beet Armyworm (Spodoptera exigua, LAPHEG). The series can be described thus: Bioassay on Beet Armyworm (BAW), 128-well diet tray assay. As to conditions: 168 h, 50 μg/cm^2 on artificial diet, second instar larvae, five to seven days, 25° C., read-out: BAW % Control (or Mortality) rating. The procedure, abridged:
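Artificial diet was surface-treated with 50 μg/cm^2 of compound in 90:10 acetone-water and dried; one to five second-instar larvae were placed per well, eight wells per treatment. Held at 25 °C, 14:10 light-dark, for five to seven days, then percent mortality per well was averaged.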

Series [2] concerns Cabbage Looper (Trichoplusia ni, TRIPNI). As to the kind of experiment: Bioassay on Cabbage Looper (CL), 128-well diet tray assay. As to conditions: 168 h, 50 μg/cm^2 on artificial diet, second instar larvae, five to seven days, 25° C., read-out: CL % Control (or Mortality) rating. The procedure, abridged:
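Diet-tray assay: 1–5 second-instar larvae per well on artificial diet surface-treated with 50 μg/cm^2 compound (90:10 acetone-water, dried), eight wells per compound. Held at 25° C., 14:10 light-dark for five to seven days; percent mortality per well averaged across the eight wells.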

Series [3] deals with Yellow Fever Mosquito (Aedes aegypti, AEDSAE). As to conditions: about 1 day-old larvae, 3 days, room temperature, scored on mortality. As to the method:
Example C: Bioassays on Yellow Fever Mosqurro (Aedes aegypti, AEDSAE) (“YFM”)
Certain molecules disclosed in this document were tested against YFM using procedures described in the following paragraph. In the reporting of the results, the “GPA & YFM Rating Table” was used (See Table Section).
Master plates containing 400 μg of a molecule dissolved in 100 μL of dimethyl sulfoxide (DMSO) (equivalent to a 4000 ppm solution) are used. A master plate of assembled molecules contains 15 μL per well. To this plate, 135 μL of a 90:10 water:acetone mixture is added to each well. A robot (Biomek® NXP Laboratory Automation Workstation) is programmed to dispense 15 μL aspirations from the master plate into an empty 96-well shallow plate (“daughter” plate). There are 6 reps (“daughter” plates) created per master. The created daughter plates are then immediately infested with YFM larvae.
The day before plates are to be treated, mosquito eggs are placed in Millipore water containing liver powder to begin hatching (4 g. into 400 mL). After the daughter plates are created using the robot, they are infested with 220 μL of the liver powder/larval mosquito mixture (about 1 day-old larvae). After plates are infested with mosquito larvae, a non-evaporative lid is used to cover the plate to reduce drying. Plates are held at room temperature for 3 days prior to grading. After 3 days, each well is observed and scored based on mortality. The results are indicated in the table entitled “Table ABC: Biological Results” (See Table Section).

On to `O=C(NCCS(=O)(=O)CC(F)(F)F)c1ccc(/C(F)=C/C(c2cc(Cl)c(Cl)c(Cl)c2)C(F)(F)F)cc1C(F)(F)F` (stereo not drawn) [F49, (Z)-4-(1,4,4,4-tetrafluoro-3-(3,4,5-trichlorophenyl)but-1-en-1-yl)-N-(2-((2,2,2-trifluoroethyl)sulfonyl)ethyl)-2-(trifluoromethyl)benzamide], for which the mortality at 50 µg/cm2 in series [1] and in series [2] was 50 to 100% each time. For the same compound, in series [3], the “YFM % Control (or Mortality) rating” value was “A (80-100)”.
With `Cc1cc(C(/C=C(\F)c2ccc(C(=O)N[C@H](C)CSCC(F)(F)F)c(C(F)(F)F)c2)C(F)(F)F)cc(C)c1Cl` (stereo partly drawn) [F52, 4-((Z)-3-(4-Chloro-3,5-dimethylphenyl)-1,4,4,4-tetrafluorobut-1-en-1-yl)-N—((R)-1-((2,2,2-trifluoroethyl)thio)propan-2-yl)-2-(trifluoromethyl)benzamide], the mortality at 50 µg/cm2 in series [1] and in series [2] was 50 to 100% in each case. In addition, in series [3], the “YFM % Control (or Mortality) rating” value was “D (No activity noticed in this bioassay)”.
Turning to `CCS(=O)(=O)C[C@@H](C)NC(=O)c1ccc(/C(F)=C/C(c2cc(C)c(Cl)c(C)c2)C(F)(F)F)cc1C(F)(F)F` (stereo partly drawn) [F53, 4-((Z)-3-(4-Chloro-3,5-dimethylphenyl)-1,4,4,4-tetrafluorobut-1-en-1-yl)-N—((R)-1-(ethylsulfonyl)propan-2-yl)-2-(trifluoromethyl)benzamide], the mortality at 50 µg/cm2 in series [1] and in series [2] was 50 to 100% in each case. Moreover, the “YFM % Control (or Mortality) rating” value in series [3] was “D (No activity noticed in this bioassay)”.
With `C[C@H](CS(=O)(=O)CC(F)(F)F)NC(=O)c1ccc(/C(F)=C/C(c2ccc(Br)c(Br)c2)C(F)(F)F)cc1C(F)(F)F` (stereo partly drawn) [F54, 4-((Z)-3-(3,4-Dibromophenyl)-1,4,4,4-tetrafluorobut-1-en-1-yl)-N—((R)-1-((2,2,2-trifluoroethyl)sulfonyl)propan-2-yl)-2-(trifluoromethyl)benzamide], the mortality at 50 µg/cm2 in series [1] and in series [2] was 50 to 100% in each case. For the same compound, the “YFM % Control (or Mortality) rating” value in series [3] is reported as “A (80-100)”.
Regarding `CCS(=O)(=O)C[C@@H](C)NC(=O)c1ccc(/C(F)=C/C(c2cc(Br)c(Cl)c(Br)c2)C(F)(F)F)cc1C(F)(F)F` (stereo partly drawn) [F55, 4-((Z)-3-(3,5-Dibromo-4-chlorophenyl)-1,4,4,4-tetrafluorobut-1-en-1-yl)-N—((R)-1-(ethylsulfonyl)propan-2-yl)-2-(trifluoromethyl)benzamide], the mortality at 50 µg/cm2 in series [1] and in series [2] was 50 to 100% throughout. Further, in series [3], the “YFM % Control (or Mortality) rating” value is on record as “A (80-100)”.
As to `C[C@H](CS(=O)(=O)CC(F)(F)F)NC(=O)c1ccc(/C(F)=C/C(c2cc(Cl)cc(Br)c2)C(F)(F)F)cc1C(F)(F)F` (stereo partly drawn) [F65], the mortality at 50 µg/cm2 in series [1] and in series [2] was 50 to 100% throughout. The “YFM % Control (or Mortality) rating” value in series [3] is “B (More than 0-Less than 80)”.
Take `Cc1cc(C(/C=C(\F)c2ccc(C(=O)N[C@H](C)CS(=O)(=O)CC(F)(F)F)c(C(F)(F)F)c2)C(F)(F)F)cc(Cl)c1Cl` (stereo partly drawn) [F78, 4-((Z)-3-(3,4-Dichloro-5-methylphenyl)-1,4,4,4-tetrafluorobut-1-en-1-yl)-N—((R)-1-((2,2,2-trifluoroethyl)sulfonyl)propan-2-yl)-2-(trifluoromethyl)benzamide]: the mortality at 50 µg/cm2 in series [1] and in series [2] was 50 to 100% each time. Also, the “YFM % Control (or Mortality) rating” value in series [3] was “B (More than 0-Less than 80)”.
Take `C[C@H](CS(=O)(=O)CC(F)(F)F)NC(=O)c1ccc(/C(F)=C/C(c2ccc(C(F)(F)F)c(Cl)c2)C(F)(F)F)cc1C(F)(F)F` (stereo partly drawn) [F91]: the mortality at 50 µg/cm2 in series [1] and in series [2] was 50 to 100% each time. For the same compound, the “YFM % Control (or Mortality) rating” value in series [3] is “D (No activity noticed in this bioassay)”.
